Read-outs that look alike come from different tables or passages of the source. Starred links: 1 amine or outer side, 2 acyl side, 3 side chain; linkers in the order of their positions; H or OH if unused. Non-standard residues stand in square brackets, D forms with d. Residues, ends and D or L forms follow the SMILES beside them. X1 = N=C(CCl)NCCC[C@H](N[*:1])C(=O)[*:2]
Tests used:
PRMT1 [1] = biological target: T1, PRMT1 (Homo sapiens, UniProt Q99873); test: MTase-Glo assay, inhibition by chloroacetamidine warhead peptide; assay type: biochemical; conditions: inhibitor 0–250 µM, 4 µL of 400 nM PRMT1, 15 min pre-incubation at 37 °C, substrate AcH4-21 (1 µL of 225 µM), Tris pH 8.0
T1 construct: made in house
Method: The MTase-Glo assay was also used to determine the inhibition parameters of the chloroacetamidine warhead peptide. For this assay, various concentrations of the chloroacetamidine warhead peptide (0–250 µM) were added to reaction buffer (80 mM Tris Buffer [pH 8.0], […], 4 mM EDTA, 12 mM MgCl2, 0.4 mg/mL BSA and 4 mM DTT) and incubated for 10 min at 37 °C. Following this incubation, 4 µL of 400 nM PRMT1 was added to the inhibition reaction mix and continued to be incubated at 37 °C for 15 min. The substrate peptide, 1 uL of 225 µM AcH4-21, was added to each reaction for 15 min. To quench the reaction, each sample received 2 µL of 0.5% TFA solution and placed at room temperature before 2.2 µL of the 6× MTase-Glo reagent was added to each sample for 30 min. Then 13.2 µL of the MTase-Glo Detection solution was added and incubated for an additional 30 min. The luminescence signal was read using a BioTek Synergy 2 Multi-Mode Microplate Reader and the % activity was calculated using an SAH standard curve (0–5 µM) before being fit to Equation (2):(2) Fractional Activity of PRMT=1/1+ 1/IC50 using GraFit version 7.03.

PRMT1 [2] = biological target: T1, PRMT1; conditions: cited from earlier work
Method: Table 3 List of Validation Peptide Sequences along with the Kinetic Parameters. | column: kcat (min^−1); Km (µM); kcat/Km (M^−1 min^−1) || Design and Synthesis of the Peptide Library. Histone peptides are well-documented substrates of PRMT1 and thus provide a good model for the design of a screening library to search for better PRMT1 peptide substrates. […] Given that our study is focused on identifying peptide substrates with improved kinetic parameters, we chose to use a library based on the H4-16 template. Our previous work highlighted that flexibility was permitted within the ... || Rather than testing all individual hit peptide sequences, and to help identify the specific elements that are important for PRMT1 substrate binding, we collected and synthesized a series of consensus-based sequences from the list of hit peptides.

PRMT1 [3] = biological target: T1, PRMT1; test: MTase-Glo Methyltransferase Assay, kinetic parameters of peptide substrates; assay type: biochemical; conditions: Tris pH 8.0; for kcat / Km: MTase-Glo luminescence, peptide 0–1000 µM, 4 µL of 200 nM PRMT1, 10 min at 37 °C, SAH standards, fit with GraFit; for kcat/Km: from kcat and Km, MTase-Glo assay, 37 °C
Method: To determine the kinetic parameters, kcat, Km and kcat/Km for each of the validation or hit peptides, a MTase-Glo™ Methyltransferase Assay from the Promega Corporation was utilized to monitor the enzymatic reaction.
Varying concentrations (0–1000 µM) of the peptide in assay buffer (4 mM DTT, 0.4 mg/mL BSA, 4 mM EDTA, 12 mM MgCl2, 200 mM NaCl and 80 mM Tris Buffer-pH 8.0) were incubated at 37 °C for 10 min. Then 4 µL of 200 nM PRMT1 was added to this reaction mixture and continued for another 10 min at 37 °C. Of note the enzymatic activity was linear with respect to time and enzyme concentration under these conditions. The reaction was quenched by the addition of 2 µL 0.5% TFA and placed at room temperature before adding 2.2 µL of the 6× MTase-Glo Reagent. After 30 min, 13.2 µL of the MTase-Glo Detection Solution was added and incubated for an additional 30 min before the luminescence was read using a BioTek Synergy 2 Multi-Mode Microplate Reader (Agilent Technologies, Santa Clara, CA). Luminescence signal was converted to product concentration using SAH standards (0–5 μM) and the initial rates were fit to Equation (1):[…](1) using GraFit version 7.03.

PRMT1 [4] = test: Plate-based on-bead substrate screening assay (ADMA antibody / alkaline phosphatase / BCIP); assay type: biochemical; conditions: 20 beads/well; 500 nM PRMT1, 400 µM SAM, 37 °C, HEPES pH 8.0; hit = at least 10 blue beads per well
Method: The beads from the filter plate were transferred to an Acrowell 96 Filter screening plate (Cat#5020; Pall Corporation; Port Washington, NY) and rinsed with 0.20 mL DI water, followed by 0.20 mL of TBST 10 times. The beads were swelled with 0.25 mL TBST overnight with gentle rocking at 4 °C. The plate was rinsed with 0.25 mL of Assay Buffer #1 (50 mM HEPES pH 8.0, 50 mM NaCl, 1 mM EDTA). After draining, the plate was incubated with 500 nM PRMT1 in 0.1 mL of Assay Buffer #2 (50 mM HEPES pH 8.0, 50 mM NaCl, 1 mM EDTA, 0.5 mM DTT, 400 µM SAM) for 90 min at 37 °C while rocked gently at 120 rpm. The plate was rinsed with TBST (5 × 0.20 mL) then rocked gently in 100 µL of 0.1% SDS for 15 min at room temperature, before being washed with DI water (10 × 0.20 mL) and TBST (10 × 0.20 mL).
Beads were blocked with 125 µL of 1.5% (w/v) BSA in TBST for 1 h at room temperature with gentle rocking. The beads were rinsed with TBST (5 × 0.20 mL), then incubated overnight at 4 °C with 0.065 mL total volume of TBST + 1.5% (w/v) BSA + 1:500 Ab412 antibody (purchased from Abcam; Cambridge, UK) with gentle rocking.
The plate was then rinsed with 0.20 mL of TBS for 10 min and 0.20 mL TBST for another 10 min. The plate was incubated with gentle rocking for 60 min at room temperature with 0.065 mL total volume of TBST + 1.5% (w/v) BSA + 1:4000 Ab98690 antibody (secondary antibody: purchased from Abcam; Cambridge, UK). This mixture was rinsed with TBS (10 × 0.20 mL), then 0.2 mL TBST for 10 min. The plate was then incubated with 2.5 mg/mL 5-Bromo-4-chloro-3-indolyl phosphate (BCIP: a substrate that detects alkaline phosphatase emitting a blue hue when conjugated with secondary antibodies) dissolved in BCIP buffer (5.85 g NaCl, 12.1 g Tris-base, 0.476 g MgCl2 in 1 L of DI water, pH 9.0) at room temperature for 1 h with gentle rocking. The reaction was quenched with 0.1 M HCl.
Previously, we reported on this novel plate-based screening assay of the PRMT family of enzymes and identified a PRMT1 peptide substrate with kcat/Km of 8.1 × 10^4 M^−1 min^−1, which validated this screening methodology. In the current work, we utilized this method to screen a second-generation peptide library against PRMT1, which incorporated amino acids with diverse charge, size, and PTMs around the substrate arginine. Beads functionalized with peptide library members were washed extensively with buffers and subsequently incubated with PRMT1 for 60 min. The methylation reaction was then quenched with sodium dodecyl sulfate to denature PRMT1 and halt the enzymatic reaction. The peptide beads that contained ADMA as a result of PRMT1 action were identified using a 1° antibody that binds only to ADMA. […] The beads were then incubated with a 2° antibody conjugated to alkaline phosphatase. […]

[5] = reference histone peptide substrate in Table 3, same kcat/Km as quoted

T1 sequence (Q99873 1-353 isoform Q99873-3): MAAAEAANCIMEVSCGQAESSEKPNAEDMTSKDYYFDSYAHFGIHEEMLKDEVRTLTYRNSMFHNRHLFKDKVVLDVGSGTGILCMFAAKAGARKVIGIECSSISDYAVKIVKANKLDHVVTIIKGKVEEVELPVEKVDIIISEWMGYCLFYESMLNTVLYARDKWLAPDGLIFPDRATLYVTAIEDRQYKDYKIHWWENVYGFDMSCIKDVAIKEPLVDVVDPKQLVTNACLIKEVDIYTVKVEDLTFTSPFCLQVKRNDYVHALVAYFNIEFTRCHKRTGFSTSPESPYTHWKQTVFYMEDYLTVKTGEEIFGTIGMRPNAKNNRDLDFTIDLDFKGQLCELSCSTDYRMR

| Compound | kcat (PRMT1 [3]) | Km (PRMT1 [3]; read-out: Km) [µM] | kcat/Km (PRMT1 [3]) [M⁻¹ s⁻¹] | hit / non-hit as PRMT1 substrate in the plate-based screen (PRMT1 [4]) | other results |
| --- | --- | --- | --- | --- | --- |
| CC(=O)NCCCC[C@H](N)C(=O)N[C@@H](CCCCN)C(=O)N[C@@H](CS)C(=O)N[C@@H](CCCCN)C(=O)N[C@@H](C)C(=O)N[C@@H](CCCNC(=N)CCl)C(=O)NCC(=O)NCC(=O)N[C@@H](CCCCN)C(=O)NCC(=O)N[C@@H](CC(C)C)C(=O)NCC(=O)N[C@@H](CCCCN)C(=O)NCC(=O)NCC(=O)N[C@@H](C)C(=O)N[C@@H](CCCCN)C(N)=O [VALPep1 Warhead Peptide] (H-K(Ac)KCKA[X1]GGKGLGKGGAK-NH2) |  |  |  |  | IC50 (PRMT1 [1]): 3.47 ± 0.46 µM |
| H4-21 peptide: one of the best-known PRMT1 peptide substrates |  |  |  |  | kcat/Km (PRMT1 [2]; known PRMT1 peptide substrate Histone H4-21, literature value, no reference printed): 4670 M⁻¹ s⁻¹; kcat/Km (PRMT1 [2]; known PRMT1 peptide substrate Histone H4-21, literature value, no reference printed, listed as Histone H4-21): 4670 M⁻¹ s⁻¹ |
| SGRGKGGKGLGKGGAK [AcH4-16, Histone H4-16 peptide, a mediocre substrate of PRMT1, template of the library] |  |  |  |  | Km (PRMT1 [2]; [5]): 170 ± 25 µM; kcat (PRMT1 [2]; [5]): 0.00533 ± 1.7e-05 s⁻¹; kcat/Km (PRMT1 [2]; reference histone peptide substrate): 31.7 M⁻¹ s⁻¹ |
| VKVCXRGGKGLGKGGAK [Well D5 Peptide, “hit” library peptide VKVCX…, X = acetylated lysine] | 0.0318 ± 0.00188 s⁻¹ | 6.78 ± 1.77 | 4700 | hit | kcat (PRMT1 [3]; listed as Well D5): 0.03187 ± 0.00188 s⁻¹; kcat/Km (PRMT1 [3]; listed as Well D5): 4702 M⁻¹ s⁻¹ |
| VXWAWRGGKGLGKGGAK [Well E9 Peptide, “non-hit” library peptide VX…, X = acetylated lysine] | not detectable |  |  | non-hit | Km (PRMT1 [3]): not detectable |
| WWXXWRGGKGLGKGGAK [Well B10 Peptide, “non-hit” library peptide WWXX…, X = acetylated lysine] | not detectable |  |  | non-hit | Km (PRMT1 [3]): not detectable |
| XCCVARGGKGLGKGGAK [Well G2 Peptide, “hit” library peptide X…, X = acetylated lysine] | 0.0164 ± 6.7e-05 s⁻¹ | 25.4 ± 3.95 | 648 | hit |  |
| XKCKARGGKGLGKGGAK [VALPep1] | 0.041 ± 0.00133 s⁻¹ | 8.72 ± 1.2 | 4700 |  |  |
| XKCVVRGGKGLGKGGAK [VALPep3] | 0.0154 ± 0.0006 s⁻¹ | 6.92 ± 1.16 | 2230 |  |  |
| XKKKARGGKGLGKGGAK [VALPep2] | 0.043 ± 0.0029 s⁻¹ | 7.82 ± 2.23 | 5480 |  |  |
| XKKVVRGGKGLGKGGAK [VALPep4] | 0.0268 ± 0.00173 s⁻¹ | 7.42 ± 2.02 | 3600 |  |  |

From paper PMC12650519, “The Identification of a Sub-Micromolar Peptide-Based Protein Arginine Methyltransferase 1 (PRMT1) Inhibitor from a Plate-Based Screening Assay” (Biomolecules, 2025)
